Source: article PMC11243149, “Assessing the Effects of Thiazole-Carboxamide Derivatives on the Biophysical Properties of AMPA Receptor Complexes as a Potential Neuroprotective Agent” (Molecules, 2024)
Read-outs that look alike come from different tables or passages of the source.

Target: T1, GluA2 (Homo sapiens, UniProt P42262)
T1 construct: expressed in transfected cells; host or cells: HEK293T
Assay: Whole-cell patch-clamp recordings of homomeric GluA2 AMPAR in transfected HEK293T cells
Format: cell-based
Settings: for Amplitude (glutamate plus TC compound): 10 mM glutamate + TC compound (12 µM optimal concentration), HEK293T, -60 mV, pH 7.4, 22 °C, mean ± SEM; for Amplitude (glutamate plus TC compound) / Amplitude, applying glutamate alone after TC compound: n = 10; for Amplitude, applying glutamate alone after TC compound: 10 mM glutamate alone after 20 s wash following the TC compound; for A/AI: ratio of current with glutamate alone (A) to inhibited current after TC compound (AI); for t deact: weighted tau of deactivation, 10 mM glutamate for 1 ms, glutamate alone 2.3±0.1; for t deact / t des: with TC compound; for t des: weighted tau of desensitization, 10 mM glutamate 500 ms, glutamate alone 2.6±0.1
Procedure: The effect of five TC compounds on whole-cell currents of four AMPAR subunits (GluA1, GluA1/2, GluA2, and GluA2/3) was investigated using transfected HEK293T cells. Each compound was applied separately to each subunit, with experiments conducted on 8–10 cells per condition to ensure reproducibility. […] At a glutamate concentration of 10 mM and a 500 ms protocol, approximately 95% of AMPAR channels were open. The A/AI ratio was calculated to compare the results, where A represents normalized current readings and AI indicates the inhibited current following TC compound exposure. […] Following closely, TC-1 inhibited the tested subunits by 5-fold.
The IC50 values were examined using GraphPad Prism software 9.5.0.730 (x64) (Table S6), which confirmed these findings. The IC50 values of TC substances were calculated by standardizing the peak current amplitudes using data obtained from 8–10 cells. Following a 500 ms exposure to the compounds, the cells were rinsed with glutamate for 20 s. Next, a solution containing just glutamate at a concentration of 10 mM was administered, and the resulting immediate induced electrical current was measured and documented (Figure 3).
In addition, an evaluation was conducted on the deactivation rates (τw deact) of all the examined chemicals to investigate their impact on the kinetics of deactivation. The chemicals were assessed for their effect on the deactivation kinetics of AMPAR subunits by briefly administering 10 mM glutamate for 1 ms to begin currents. This experimental setup allowed for the observation of τw deact under controlled conditions. […] TC-5 induced an approximately 2-fold increase in τw deact across all four tested subunits. […] These findings highlight the differential impact of TC compounds on deactivation kinetics across AMPAR subunits, shedding light on their potential neuroprotective mechanisms.
The flip isoform was uniformly employed across all AMPAR subunits in this study. These subunits were subcloned into the pRK vector and expressed in Human Embryonic kidney cells sourced (Sigma, München, Germany). HEK293T cells were grown in Dulbecco Modified Eagle Medium (DMEM) (Sigma, München, Germany) containing 10% FBS (fetal bovine serum), 0.1 mg/mL streptomycin, and 1 mM sodium pyruvate (Biological Industries; Beit-Haemek, Israel). HEK293T cells were incubated at 37 °C and 5% CO2 was supplemented to the medium. It was subcultured twice a week until cells reached pass #20. The transfection reagent used was either jetPRIME (Polyplus: New York, NY, USA) or Lipofectamine 2000 (Invitrogen; San Diego, CA, USA). Cells were kept for 36 h. after transfection in 12-well plates. Then, they were replated on coverslips coated with Laminin (1 mg/mL; Sigma, Germany) for electrophysiology recordings. Cells were then seeded in Petri dishes in DMEM supplemented with 10% fetal calf serum and antibiotics and maintained in a humidified incubator at 37 °C and 5% CO2. Highly fluorescent cells were identified and selected for recording post-transfection.
HEK293T cells were recorded for 36–48 h, at a temperature of 22 °C, with a membrane potential of −60 mV. HEK293T cells were recorded 36–48 h after transfection using IPA (Integrated Patch Amplifier) via the […], at a temperature of 22 °C, with a membrane potential of −60 mV. SutterPatch Software v. 1.1.1 (Sutter Instruments, Novato, CA, USA) was used to digitize membrane currents for a short period. The sampling frequency was set to 10 kHz, and the low-pass filter was set to 2 kHz. Borosilicate glass was used to fabricate the patch electrodes with a resistance of 2–4 MΩ. The extracellular solution contained the following (values are in mM): 150 NaCl, 2.8 KCl, 0.5 MgCl2, 2 CaCl2, and 10 HEPES, adjusted to pH 7.4 with NaOH. The pipette solution contained the following (values are in mM): 110 CsF, 30 CsCl, 4 NaCl, 0.5 CaCl2, 10 […], and 10 HEPES, adjusted to pH 7.2 with CsOH. […]

[1] = Table S6, read-out: Log IC50 (converted)
[2] = Table S6, peak current amplitudes, 8-10 cells, GraphPad Prism fit, read-out: IC50

T1 sequence (P42262 25-883 isoform P42262-2 limits assumed, species assumed): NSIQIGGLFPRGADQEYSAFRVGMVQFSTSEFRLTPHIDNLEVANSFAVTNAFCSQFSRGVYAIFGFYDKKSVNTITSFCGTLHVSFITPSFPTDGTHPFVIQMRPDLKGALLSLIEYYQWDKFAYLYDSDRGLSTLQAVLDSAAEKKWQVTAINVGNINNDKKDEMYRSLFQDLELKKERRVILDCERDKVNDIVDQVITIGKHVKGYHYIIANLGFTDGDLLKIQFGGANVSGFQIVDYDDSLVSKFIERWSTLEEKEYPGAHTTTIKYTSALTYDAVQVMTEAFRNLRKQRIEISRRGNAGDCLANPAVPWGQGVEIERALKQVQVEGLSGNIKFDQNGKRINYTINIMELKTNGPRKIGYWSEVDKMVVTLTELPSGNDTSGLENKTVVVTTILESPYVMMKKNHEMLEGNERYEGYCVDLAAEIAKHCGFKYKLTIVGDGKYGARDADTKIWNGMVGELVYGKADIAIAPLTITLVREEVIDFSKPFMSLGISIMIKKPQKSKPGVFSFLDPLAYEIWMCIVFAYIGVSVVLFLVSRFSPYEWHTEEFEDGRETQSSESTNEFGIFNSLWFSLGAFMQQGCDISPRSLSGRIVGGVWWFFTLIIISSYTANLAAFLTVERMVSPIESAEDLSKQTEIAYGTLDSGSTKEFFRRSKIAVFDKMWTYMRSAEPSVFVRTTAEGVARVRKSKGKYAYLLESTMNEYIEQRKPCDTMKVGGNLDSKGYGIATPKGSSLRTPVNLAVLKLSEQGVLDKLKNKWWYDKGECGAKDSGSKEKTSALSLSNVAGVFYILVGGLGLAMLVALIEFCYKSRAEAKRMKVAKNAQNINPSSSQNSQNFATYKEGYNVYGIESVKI

Structure (SMILES) | Amplitude (glutamate plus TC compound) | Amplitude, applying glutamate alone after TC compound | IC50 [1] | A/AI | IC50 (read-out: IC50) | t deact | t des | IC50 [2]
COc1ccc(-c2nc(C(=O)Nc3ccc(OC)c(OC)c3)cs2)cc1 [TC-1] | 233±20 pA | 1137±97 pA | 3.31 µM | 5.03±0.04 | 3.3 µM | 5.9 ± 0.2 ms | 1.1 ± 0.1 ms | 
COc1ccc(-c2nc(C(=O)Nc3ccccc3)cs2)cc1 [TC-3] | 363±37 pA | 1078±112 pA | 5.5 µM | 3.17±0.02 |  | 3.5 ± 0.3 ms | 1.7 ± 0.1 ms | 5.5 µM
COc1ccc(-c2nc(C(=O)Nc3ccc(C(C)(C)C)cc3)cs2)cc1 [TC-4] | 393±43 pA | 1110±101 pA | 5.62 µM | 2.91±0.07 |  | 3.4 ± 0.2 ms | 1.8 ± 0.1 ms | 5.6 µM
